Measured values taken from PMC10254235, “Design, Synthesis, and Anti-Cervical Cancer and Reversal of Tumor Multidrug Resistance Activity of Novel Nitrogen-Containing Heterocyclic Chalcone Derivatives” (Molecules, 2023).
Read-outs that look alike come from different tables or passages of the source.

Experiments:
HeLa cells [1] = experiment: MTT antiproliferative assay, HeLa cells; type: cell-based, human; conditions: 48 h
Experimental: (§1) HeLa and SiHa cell lines were obtained from the Procell Life Science Technology Co., Ltd. (Wuhan, China); H8 cell line was obtained from the Shanghai HonSun Biological Technology Co., Ltd. (Shanghai, China); HUVEC cell line was obtained from the Saibaikang (Shanghai) Biotechnology Co., Ltd. (Shanghai, China); HeLa/DDP cell line was obtained from the Guangzhou Jenniobio Biotechnology Co., Ltd. (Guangzhou, China). HeLa, SiHa, H8, and HeLa/DDP cells were cultured in DMEM medium (HyClone). The VEGF of 50 ng/mL was used as the promoter of the VEGFR-2 receptor on HUVEC cell membrane surfaces, and their inhibitory effects on VEGFR-2 were determined. All the mediums were supplemented with 10% FBS (HyClone, GE Healthcare, Australia). Cells were maintained at subconfluency at 37 °C in humidified air containing 5% CO2. The cells were monitored daily and maintained at 80% cell density. All compounds tested were dissolved in DMSO and then diluted by the culture medium before the treatment of cultured cells. Identification reports are available for all types of cell lines involved in this study.
(§2) The cytotoxicity of the target compounds were measured in vitro using the MTT assay. Cells grown in the logarithmic phase were counted and seeded in 96-well cell culture plates (5 × 10^3 cells per well) for 24 h to allow attachment of cells to the wall of the plate. […] Next, 20 μL of 5 mg.mL^−1 MTT solution was added to each well and cultured for 4 h. The old solution was discarded, replaced with 150 μL DMSO solution per well, and shaken for 10 min. The OD value was measured under 490 nm, and the inhibition rate was calculated. The nonlinear regression fitting of the cell growth rate was carried out using SPSS 23.0 software, and the IC50 of the compound was calculated. […] There were 6 compound holes in each group, and the experimental results were presented as the average of 3 experiments. A complete medium containing only cells was used as the blank control, whereas a complete medium without cells was the negative control group. Cisplatin and sorafenib were utilized as the positive control group, and the target compound was the experimental intervention group.

SiHa cells = experiment: MTT antiproliferative assay, SiHa cells; type: cell-based, human; conditions: 48 h, mean ± SD
Experimental: as §1, §2

H8 cells = experiment: MTT cytotoxicity assay, normal cervical epithelial H8 cells; type: cell-based, human; conditions: 48 h, mean ± SD
Experimental: as §1, §2

HeLa cells [2] = experiment: Apoptosis analysis, Annexin V-FITC/PI flow cytometry; type: cell-based, human; conditions: 4 μM, 24 h
Experimental: After incubation, cells were harvested and incubated using […] of Annexin-V/FITC (BD, America) in binding buffer (10 mM HEPES, 140 mM NaCl, and 2.5 mM CaCl2 at pH 7.4) at room temperature for 15 min. The PI solution was then added to the medium for another 10 min incubation. Almost 10,000 events were collected for each sample and analyzed using flow cytometry (BD, LSRFortessa, New York, NY, USA). The procedure for the remaining Western blot was the same as in Section 3.3.3.

HUVEC cells = experiment: In vitro HUVEC inhibitory assay (MTT); type: cell-based; conditions: Homo sapiens, 48 h, ± SD
Experimental: as §1, §2
After incubation for 24 h, the cell was collected using centrifugation and washed twice using PBS chilled to 0 °C. Then, the cells were homogenized in RIPA lysis buffer and 1% PMSF, 1% mixed phosphatase inhibitor (Solarbio, Beijing, China). The lysates were incubated on ice for 30 min, intermittently vortexed every 5 min, and centrifuged at 12,000 rpm for 20 min to harvest the supernatants.

HeLa/DDP cells = experiment: MTT assay, cisplatin-resistant HeLa/DDP cells; type: cell-based, human; conditions: for IC50: 48 h, read-out: 48h IC50 HeLa/DDP; for RI (resistance index): HeLa/DDP versus HeLa
Experimental: The cytotoxicity of the target compounds were measured in vitro using the MTT assay. Cells grown in the logarithmic phase were counted and seeded in 96-well cell culture plates (5 × 10^3 cells per well) for 24 h to allow attachment of cells to the wall of the plate. […] Next, 20 μL of 5 mg.mL^−1 MTT solution was added to each well and cultured for 4 h. The old solution was discarded, replaced with 150 μL DMSO solution per well, and shaken for 10 min. The OD value was measured under 490 nm, and the inhibition rate was calculated. The nonlinear regression fitting of the cell growth rate was carried out using SPSS 23.0 software, and the IC50 of the compound was calculated. […] A complete medium containing only cells was used as the blank control, whereas a complete medium without cells was the negative control group.
To reduce the adverse reactions caused by the fixation of drug resistance reversal agents, the concentration that reduces the proliferation rate of tumor cells by less than 10% was selected.

[3] = Homo sapiens, MTT, mean ± SD, read-out: 48h IC50 HeLa
[4] = Homo sapiens, single agent, read-out: 48h IC50 HeLa (Table 4)
[5] = Homo sapiens, cisplatin-resistant HeLa/DDP cells, single agent

Compound | IC50 (HeLa cells [1]; [3]) [µM] | IC50 (SiHa cells; Homo sapiens) [µM] | IC50 (H8 cells; Homo sapiens) [µM] | also measured
COc1cc(O)c(C(=O)/C=C/c2ccc(CN3CCOCC3)cc2)cc1CN1CCC(O)CC1 [6e, (E)-1-(2-hydroxy-5-((4-hydroxypiperidin-1-yl)methyl)-4-methoxyphenyl)-3-(4-(morpholinomethyl)phenyl)prop-2-en-1-one] | 56.7 ± 0.59 | > 100 | 75.69 ± 0.49 | –
COc1cc(O)c(C(=O)/C=C/c2ccc(CN3CCCC3)cc2)cc1CN1CCC(O)CC1 [6c, (E)-1-(2-hydroxy-5-((4-hydroxypiperidin-1-yl)methyl)-4-methoxyphenyl)-3-(4-(pyrrolidin-1-ylmethyl)phenyl)prop-2-en-1-one] | 32.17 ± 0.14 | 44.49 ± 0.38 | 34 ± 4.14 | –
COc1cc(O)c(C(=O)/C=C/c2ccc(CN3CCN(C)CC3)cc2)cc1CN1CCC(C)CC1 [6t, (E)-1-(2-hydroxy-4-methoxy-5-((4-methylpiperidin-1-yl)methyl)phenyl)-3-(4-((4-methylpiperazin-1-yl)methyl)phenyl)prop-2-en-1-one] | 30.9 ± 0.18 | 36 ± 6.3 | 42.11 ± 0.31 | –
COc1cc(O)c(C(=O)/C=C/c2ccc(CN3CCOCC3)cc2)cc1CN1CCOCC1 [6n, (E)-1-(2-hydroxy-4-methoxy-5-(morpholinomethyl)phenyl)-3-(4-(morpholinomethyl)phenyl)prop-2-en-1-one] | > 100 | > 100 | > 100 | –
COc1cc(O)c(C(=O)/C=C/c2ccc(CN3CCC(OC)CC3)cc2)cc1CN1CCCC1 [6l, (E)-1-(2-hydroxy-4-methoxy-5-(pyrrolidin-1-ylmethyl)phenyl)-3-(4-((4-methoxypiperidin-1-yl)methyl)phenyl)prop-2-en-1-one] | > 100 | > 100 | > 100 | –
COc1cc(O)c(C(=O)/C=C/c2ccc(CN3CCC(O)CC3)cc2)cc1CN1CCC(O)CC1 [6a, (E)-1-(2-hydroxy-5-((4-hydroxypiperidin-1-yl)methyl)-4-methoxyphenyl)-3-(4-((4-hydroxypiperidin-1-yl)methyl)phenyl)prop-2-en-1-one] | 72.9 ± 0.12 | > 100 | > 100 | –
COc1cc(O)c(C(=O)/C=C/c2ccc(CN3CCOCC3)cc2)cc1CN1CCC(OC)CC1 [6h, (E)-1-(2-hydroxy-4-methoxy-5-((4-methoxypiperidin-1-yl)methyl)phenyl)-3-(4-(morpholinomethyl)phenyl)prop-2-en-1-one] | > 100 | > 100 | > 100 | –
CNC(=O)c1cc(Oc2ccc(NC(=O)Nc3ccc(Cl)c(C(F)(F)F)c3)cc2)ccn1 [Sorafenib, reference compound] | 10.8 ± 0.15 | 15 ± 1.2 | 18.4 ± 1.04 | proapoptotic rate (HeLa cells [2]): 31.7%; IC50 (HeLa cells [1]; [4]): 10.8 ± 0.15 µM; IC50 (HUVEC cells): 9.2 ± 1.22 µM; IC50 (HeLa/DDP cells; Homo sapiens, HeLa): 12.4 ± 0.54 µM
N.N.[Cl][Pt][Cl] [Cisplatin, reference compound] | – | – | – | IC50 (HeLa cells [1]; MTT, mean ± SD, read-out: 48h IC50 HeLa): 13.6 ± 1.63 µM; IC50 (HeLa cells [1]; single agent, read-out: 48h IC50 HeLa (Table 4)): 13.6 ± 1.63 µM; IC50 (SiHa cells): 21.6 ± 2.9 µM; RI (resistance index) (HeLa/DDP cells; single agent): 7.36; IC50 (HeLa/DDP cells; cisplatin-resistant HeLa/DDP cells, single agent): 100 ± 7.94 µM; IC50 (H8 cells): 24.8 ± 1.37 µM
CC(=O)O[C@H]1C(=O)[C@@]2(C)[C@H]([C@H](OC(=O)c3ccccc3)[C@]3(O)C[C@H](OC(=O)[C@H](O)[C@@H](NC(=O)c4ccccc4)c4ccccc4)C(C)=C1C3(C)C)[C@]1(OC(C)=O)CO[C@@H]1C[C@@H]2O [Paclitaxel, reference compound] | – | – | – | IC50 (HeLa cells [1]; [4]): 20.1 ± 1.05 µM; IC50 (HeLa/DDP cells; [5]): 125 ± 5.3 µM
COc1cc(O)c(C(=O)/C=C/c2ccc(CN3CCC(C)CC3)cc2)cc1CN1CCN(C)CC1 [6u, (E)-1-(2-hydroxy-4-methoxy-5-((4-methylpiperazin-1-yl)methyl)phenyl)-3-(4-((4-methylpiperidin-1-yl)methyl)phenyl)prop-2-en-1-one] | 28.01 ± 0.14 | 28.2 ± 0.5 | 42.5 ± 0.85 | –
COc1cc(O)c(C(=O)/C=C/c2ccc(CN3CCC(C)CC3)cc2)cc1CN1CCC(C)CC1 [6r, (E)-1-(2-hydroxy-4-methoxy-5-((4-methylpiperidin-1-yl)methyl)phenyl)-3-(4-((4-methylpiperidin-1-yl)methyl)phenyl)prop-2-en-1-one] | 25.5 ± 1.21 | 36.6 ± 1.94 | 42.2 ± 0.8 | –
COc1cc(O)c(C(=O)/C=C/c2ccc(CN3CCCC3)cc2)cc1CN1CCC(C)CC1 [6s, (E)-1-(2-hydroxy-4-methoxy-5-((4-methylpiperidin-1-yl)methyl)phenyl)-3-(4-(pyrrolidin-1-ylmethyl)phenyl)prop-2-en-1-one] | 30.9 ± 0.39 | 36.1 ± 1.71 | 35.4 ± 0.61 | –
COc1cc(O)c(C(=O)/C=C/c2ccc(CN3CCC(OC)CC3)cc2)cc1CN1CCOCC1 [6p, (E)-1-(2-hydroxy-4-methoxy-5-(morpholinomethyl)phenyl)-3-(4-((4-methoxypiperidin-1-yl)methyl)phenyl)prop-2-en-1-one] | 79.9 ± 2.4 | 66.04 ± 0.49 | 85.4 ± 3.92 | –
COc1cc(O)c(C(=O)/C=C/c2ccc(CN3CCC(OC)CC3)cc2)cc1CN1CCC(O)CC1 [6b, (E)-1-(2-hydroxy-5-((4-hydroxypiperidin-1-yl)methyl)-4-methoxyphenyl)-3-(4-((4-methoxypiperidin-1-yl)methyl)phenyl)prop-2-en-1-one] | 40.13 ± 0.11 | 57.1 ± 1.3 | 82.5 ± 5.21 | –
COc1cccc2c1C(=O)c1c(O)c3c(c(O)c1C2=O)C[C@@](O)(C(=O)CO)C[C@@H]3O[C@H]1C[C@H](N)[C@H](O)[C@H](C)O1 [Doxorubicin] | – | – | – | IC50 (HeLa cells [1]; [4]): 10.6 ± 0.5 µM; RI (resistance index) (HeLa/DDP cells; single agent): 3.93; IC50 (HeLa/DDP cells; [5]): 41.6 ± 2.05 µM
COc1cc(O)c(C(=O)/C=C/c2ccc(CN3CCN(C)CC3)cc2)cc1CN1CCCC1 [6m, (E)-1-(2-hydroxy-4-methoxy-5-(pyrrolidin-1-ylmethyl)phenyl)-3-(4-((4-methylpiperazin-1-yl)methyl)phenyl)prop-2-en-1-one] | 52.43 ± 0.42 | > 100 | > 100 | –
COc1cc(O)c(C(=O)/C=C/c2ccc(CN3CCC(O)CC3)cc2)cc1CN1CCCC1 [6i, (E)-1-(2-hydroxy-4-methoxy-5-(pyrrolidin-1-ylmethyl)phenyl)-3-(4-((4-hydroxypiperidin-1-yl)methyl)phenyl)prop-2-en-1-one] | 46.15 ± 0.35 | 77.02 ± 0.22 | 71.64 ± 0.48 | –
COc1cc(O)c(C(=O)/C=C/c2ccc(CN3CCOCC3)cc2)cc1CN1CCC(C)CC1 [6q, (E)-1-(2-hydroxy-4-methoxy-5-((4-methylpiperidin-1-yl)methyl)phenyl)-3-(4-(morpholinomethyl)phenyl)prop-2-en-1-one] | 88.17 ± 0.72 | > 100 | > 100 | –
COc1cc(O)c(C(=O)/C=C/c2ccc(CN3CCC(C)CC3)cc2)cc1CN1CCC(OC)CC1 [6g, (E)-1-(2-hydroxy-4-methoxy-5-((4-methoxypiperidin-1-yl)methyl)phenyl)-3-(4-((4-methylpiperidin-1-yl)methyl)phenyl)prop-2-en-1-one] | 47.05 ± 0.11 | 85.04 ± 0.47 | 72.9 ± 1.08 | –
COc1cc(O)c(C(=O)/C=C/c2ccc(CN3CCOCC3)cc2)cc1CN1CCCC1 [6j, (E)-1-(2-hydroxy-4-methoxy-5-(pyrrolidin-1-ylmethyl)phenyl)-3-(4-(morpholinomethyl)phenyl)prop-2-en-1-one] | 37.74 ± 0.22 | 47.65 ± 0.19 | 58.46 ± 0.19 | –
COc1cc(O)c(C(=O)/C=C/c2ccc(CN3CCN(C)CC3)cc2)cc1CN1CCC(O)CC1 [6d, (E)-1-(2-hydroxy-5-((4-hydroxypiperidin-1-yl)methyl)-4-methoxyphenyl)-3-(4-((4-methylpiperazin-1-yl)methyl)phenyl)prop-2-en-1-one] | > 100 | > 100 | > 100 | –
